Assay results: US7772241B2, “Variolin derivatives and their use as antitumor agents” (Pharma Mar S.A., priority 2001, dated 2010)
Where two headings read alike, the source gives them in different places.

What was measured:
HT-29 = experiment: Inhibition of cells growth by colorimetric (SRB) assay, HT-29
Summary of the method: (§1)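 Read-out is sulforhodamine B protein stain (OD 490 nm) after cold TCA fixation, following 48 h continuous exposure to samples spanning 10 to 10^−8 μg/ml.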

HeLa = experiment: Inhibition of cells growth by colorimetric (SRB) assay, HeLa; details: for GI50: Homo sapiens, HeLa, 48 h, read-out: HELA GI50, SRB assay, 48 hours exposure; for HELA TGI: SRB assay, 48 hours exposure
From the text: (§2) The finality of these assays is to interrupt the growth of a “in vitro” tumor cell culture by means a continued exhibition of the cells to the sample to be testing.
(§3) This form of the assay employs 96 well cell culture microplates of 9 mm diameter (Faircloth, 1988; Mosmann, 1983). Most of the cell lines are obtained from American Type Culture Collection (ATCC) derived from different human cancer types.
(§4) Cells are maintained in RPMI 1640 10% FBS, supplemented with 0.1 g/l penicillin and 0.1 g/l streptomycin sulphate and then incubated at 37° C., 5% CO2 and 98% humidity. For the experiments, cells were harvested from subconfluent cultures using trypsin and resuspended in fresh medium before plating.
(§5) Cells are seeded in 96 well microtiter plates, at 5×10^3 cells per well in aliquots of 195 μl medium, and they are allowed to attach to the plate surface by growing in drug free medium for 18 hours. Afterward, samples are added in aliquots of 5 μl in a ranging from 10 to 10^−8 μg/ml, dissolved in DMSO/EtOH/PBS (0.5:0.5:99). After 48 hours exposure, the antitumor effect are measured by the SRB methodology: cells are fixed by adding 50 μl of cold 50% (wt/vol) trichloroacetic acid (TCA) and incubating for 60 minutes at 4° C. Plates are washed with deionized water and dried. One hundred μl of SRB solution (0.4% wt/vol in 1% acetic acid) is added to each microtiter well and incubated for 10 minutes at room temperature. Unbound SRB is removed by washing with 1% acetic acid. Plates are air dried and bound stain is solubilized with Tris buffer. Optical densities are read on a automated spectrophotometric plate reader at a single wavelength of 490 nm.
(§6) The values for mean +/−SD of data from triplicate wells are calculated. Some parameters for cellular responses can be calculated: GI=growth inhibition, TGI=total growth inhibition (cytostatic effect) and LC=cell killing (cytotoxic effect).

LoVo = experiment: Inhibition of cells growth by colorimetric (SRB) assay, LoVo; details: for GI50 / CC50: Homo sapiens, LoVo, 48 h; for GI50: read-out: LOVO GI50, SRB assay, 48 hours exposure; for CC50: read-out: LOVO LC50, SRB assay, 48 hours exposure; for LOVO TGI: SRB assay, 48 hours exposure
Summary of the method: as §1

K-562 = experiment: Inhibition of cells growth by colorimetric (SRB) assay, K-562; details: for GI50 / CC50: Homo sapiens, K562, 48 h; for GI50: read-out: K-562 GI50, SRB assay, 48 hours exposure; for CC50: read-out: K-562 LC50, SRB assay, 48 hours exposure; for K-562 TGI: SRB assay, 48 hours exposure
Summary of the method: as §1

LoVo-Dox = experiment: Inhibition of cells growth by colorimetric (SRB) assay, LoVo-Dox; details: for GI50 / CC50: Homo sapiens, 48 h; for GI50: read-out: LOVO-DOX GI50, SRB assay, 48 hours exposure; for CC50: read-out: LOVO-DOX LC50, SRB assay, 48 hours exposure; for LOVO-DOX TGI: SRB assay, 48 hours exposure
Summary of the method: as §1

SK-MEL-28 = experiment: Inhibition of cells growth by colorimetric (SRB) assay, SK-MEL-28; details: for GI50 / CC50: Homo sapiens, SK-MEL-28, 48 h; for GI50: read-out: MEL-28 GI50, SRB assay, 48 hours exposure; for CC50: read-out: MEL-28 LC50, SRB assay, 48 hours exposure; for MEL-28 TGI: SRB assay, 48 hours exposure
Summary of the method: as §1

LNCaP = experiment: Inhibition of cells growth by colorimetric (SRB) assay, LNCaP; details: for GI50 / CC50: Homo sapiens, LNCaP, 48 h; for GI50: read-out: LN-caP GI50, SRB assay, 48 hours exposure; for CC50: read-out: LN-caP LC50, SRB assay, 48 hours exposure; for LN-caP TGI: SRB assay, 48 hours exposure
Summary of the method: as §1

SK-BR-3 = experiment: Inhibition of cells growth by colorimetric (SRB) assay, SK-BR-3; details: for GI50 / CC50: Homo sapiens, SK-BR-3, 48 h; for GI50: read-out: SK-BR-3 GI50, SRB assay, 48 hours exposure; for CC50: read-out: SK-BR-3 LC50, SRB assay, 48 hours exposure; for SK-BR-3 TGI: SRB assay, 48 hours exposure
Summary of the method: as §1

IGROV-1 = experiment: Inhibition of cells growth by colorimetric (SRB) assay, IGROV-1; details: for GI50 / CC50: Homo sapiens, IGROV-1, 48 h; for GI50: read-out: IGROV GI50, SRB assay, 48 hours exposure; for CC50: read-out: IGROV LC50, SRB assay, 48 hours exposure; for IGROV TGI: SRB assay, 48 hours exposure
Summary of the method: as §1

A-549 = experiment: Inhibition of cells growth by colorimetric (SRB) assay, A-549
Summary of the method: as §1

DU-145 = experiment: Inhibition of cells growth by colorimetric (SRB) assay, DU-145; details: for GI50 / CC50: Homo sapiens, DU-145, 48 h; for GI50: read-out: DU-145 GI50, SRB assay, 48 hours exposure; for CC50: read-out: DU-145 LC50, SRB assay, 48 hours exposure; for DU-145 TGI: SRB assay, 48 hours exposure
Summary of the method: as §1

IGROV-ET = experiment: Inhibition of cells growth by colorimetric (SRB) assay, IGROV-ET; details: for GI50 / CC50: Homo sapiens, 48 h; for GI50: read-out: IGROV-ET GI50, SRB assay, 48 hours exposure; for CC50: read-out: IGROV-ET LC50, SRB assay, 48 hours exposure; for IGROV-ET TGI: SRB assay, 48 hours exposure
Summary of the method: as §1

HeLa-APL = experiment: Inhibition of cells growth by colorimetric (SRB) assay, HeLa-APL; details: for GI50 / CC50: Homo sapiens, 48 h; for GI50: read-out: HELA-APL GI50, SRB assay, 48 hours exposure; for CC50: read-out: HELA-APL LC50, SRB assay, 48 hours exposure; for HELA-APL TGI: SRB assay, 48 hours exposure
From the text: as §2, §3, §4, §5, §6

PANC-1 = experiment: Inhibition of cells growth by colorimetric (SRB) assay, PANC-1; details: for GI50 / CC50: Homo sapiens, PANC-1, 48 h; for GI50: read-out: PANC-1 GI50, SRB assay, 48 hours exposure; for CC50: read-out: PANC-1 LC50, SRB assay, 48 hours exposure; for PANC-1 TGI: SRB assay, 48 hours exposure
Summary of the method: as §1

[1] = Homo sapiens, HT-29, 48 h, read-out: HT-29 GI50, SRB assay, 48 hours exposure
[2] = Homo sapiens, HT-29, 48 h, read-out: HT-29 LC50, SRB assay, 48 hours exposure
[3] = Homo sapiens, A549, 48 h, read-out: A-549 GI50, SRB assay, 48 hours exposure
[4] = Homo sapiens, A549, 48 h, read-out: A-549 LC50, SRB assay, 48 hours exposure

Nc1nccc(-c2c3cccnc3n3c(N)nccc23)n1 [Deoxyvariolin 4, deoxyvariolin B, reference compound]
GI50 (HT-29; [1]): 117 nM
CC50 (HT-29; [2]): 11300 nM
HT-29 TGI (HT-29; SRB assay, 48 hours exposure): 4.98E−07
GI50 (HeLa): 81.1 nM
HELA TGI (HeLa): 1.60E−07
GI50 (LoVo): 102 nM
CC50 (LoVo): 22100 nM
LOVO TGI (LoVo): 2.54E−07
GI50 (K-562): 727 nM
CC50 (K-562): 24600 nM
K-562 TGI (K-562): 2.20E−06
GI50 (LoVo-Dox): 101 nM
CC50 (LoVo-Dox): 36100 nM
LOVO-DOX TGI (LoVo-Dox): 2.96E−07
GI50 (SK-MEL-28): 69.2 nM
CC50 (SK-MEL-28): 321 nM
MEL-28 TGI (SK-MEL-28): 1.49E−07
GI50 (LNCaP): 64.2 nM
CC50 (LNCaP): 272 nM
LN-caP TGI (LNCaP): 1.32E−07
GI50 (SK-BR-3): 73.6 nM
CC50 (SK-BR-3): 345 nM
SK-BR-3 TGI (SK-BR-3): 1.59E−07
GI50 (IGROV-1): 80.8 nM
CC50 (IGROV-1): 1320 nM
IGROV TGI (IGROV-1): 8.10E−08
GI50 (A-549; [3]): 63.8 nM
CC50 (A-549; [4]): 12200 nM
A-549 TGI (A-549; SRB assay, 48 hours exposure): 2.62E−07
GI50 (DU-145): 95.2 nM
CC50 (DU-145): 5300 nM
DU-145 TGI (DU-145): 2.46E−07
GI50 (IGROV-ET): 129 nM
CC50 (IGROV-ET): 22900 nM
IGROV-ET TGI (IGROV-ET): 3.42E−07
GI50 (HeLa-APL): 66 nM
CC50 (HeLa-APL): 318 nM
HELA-APL TGI (HeLa-APL): 1.45E−07
GI50 (PANC-1): 162 nM
CC50 (PANC-1): 15400 nM
PANC-1 TGI (PANC-1): 1.76E−06

CSc1nccc(-c2c3ccc(C)nc3n3c(N)nccc23)n1 [Compound 43]
GI50 (HT-29; [1]): 932 nM
CC50 (HT-29; [2]): 31100 nM
GI50 (HT-29; read-out: HT-29 GI50, SRB assay, 48 hours exposure): 1130 nM
CC50 (HT-29; read-out: HT-29 LC50, SRB assay, 48 hours exposure): ≥ 31000 nM
GI50 (HeLa): 23.3 nM
HELA TGI (HeLa): 2.03E−07
GI50 (LoVo): 717 nM
CC50 (LoVo): ≥ 31000 nM
LOVO TGI (LoVo): 2.37E−06
GI50 (K-562): 5270 nM
CC50 (K-562): 21200 nM
K-562 TGI (K-562): 1.06E−05
GI50 (LoVo-Dox): 1220 nM
CC50 (LoVo-Dox): ≥ 31000 nM
LOVO-DOX TGI (LoVo-Dox): 5.24E−06
GI50 (SK-MEL-28): 850 nM
CC50 (SK-MEL-28): 15300 nM
MEL-28 TGI (SK-MEL-28): 3.72E−06
GI50 (LNCaP): 1360 nM
CC50 (LNCaP): 12500 nM
LN-caP TGI (LNCaP): 3.94E−06
GI50 (SK-BR-3): 1240 nM
CC50 (SK-BR-3): ≥ 31000 nM
SK-BR-3 TGI (SK-BR-3): 5.27E−06
GI50 (IGROV-1): 6640 nM
CC50 (IGROV-1): ≥ 31000 nM
IGROV TGI (IGROV-1): 1.60E−05
GI50 (A-549; [3]): 937 nM
CC50 (A-549; [4]): 31100 nM
GI50 (A-549; Homo sapiens, A549, 48 h, read-out: GI50 A-549, SRB assay, 48 hours exposure): 2170 nM
CC50 (A-549; read-out: A-549 LC50, SRB assay, 48 hours exposure): ≥ 17300 nM
GI50 (DU-145): 1680 nM
CC50 (DU-145): 24500 nM
DU-145 TGI (DU-145): 6.79E−06
GI50 (IGROV-ET): 3690 nM
CC50 (IGROV-ET): ≥ 31000 nM
IGROV-ET TGI (IGROV-ET): 1.87E−05
GI50 (HeLa-APL): 18.2 nM
CC50 (HeLa-APL): 7880 nM
HELA-APL TGI (HeLa-APL): 1.75E−07
GI50 (PANC-1): 5710 nM
CC50 (PANC-1): ≥ 31000 nM
PANC-1 TGI (PANC-1): 1.65E−05
